pEC50, pIC50: −log10 of the molar value. The source made the active and inactive calls. The calls are words filed in the database; no cut-off is given here.
Assays:
[1] = Toxicity in guinea pig assessed as effect on repolarization in heart by Langendorff test; type: tissue-based, Cavia porcellus; settings: in vivo
[2] = tested on: Mus musculus; experiment: In vivo modulation of gamma secretase in mouse assessed as reduction in Abeta42 levels in brain at 30 mg/kg, po measured after 6 hrs relative to control; type: functional; set-up: scale not given: the % may be the effect or the level left
[3] = target: Gamma-secretase (Homo sapiens) (UniProt Q96BI3+Q9NZ42+Q8WW43+P49768+Q92542+P49810); experiment: (§1) Modulation of gamma-secretase in human H4 cells expressing human wild type APP751 assessed as reduction in amyloid beta42 level incubated overnight by ELISA; type: cell-based; settings: filed as modulator
[4] = target: Gamma-secretase; experiment: as §1; type: cell-based
[5] = Clearance in nonhuman primate at 1 mg/kg, iv; type: ADME, organism-based; settings: primates, in vivo
[6] = tested on: Rattus norvegicus; experiment: In vivo modulation of gamma secretase in rat assessed as reduction in Abeta40 levels in brain at 30 mg/kg, po measured at 16 hrs by ELISA relative to control; type: functional; set-up: scale not given: the % may be the effect or the level left
[7] = Toxicity in human cardiomyocyte assessed as change in cell health parameters upto 10 uM; settings: stem cell-derived cardiomyocyte
[8] = tested on: Rattus norvegicus; experiment: In vivo modulation of gamma secretase in rat assessed as reduction in Abeta42 levels in CSF at 30 mg/kg, po measured at 9 hrs by ELISA relative to control; type: functional, Cerebrospinal fluid; set-up: scale not given: the % may be the effect or the level left
[9] = Toxicity in guinea pig assessed as effect on inotropy and lusitropy in heart by Langendorff test; type: tissue-based, Cavia porcellus; settings: in vivo
[10] = Clearance in rat at 1 mg/kg, iv; type: ADME, organism-based; settings: in vivo
[11] = species: Homo sapiens; experiment: Inhibition of sodium channel (unknown origin) at 10 uM relative to control
[12] = Volume of distribution at steady state in nonhuman primate at 1 mg/kg, iv; type: ADME, organism-based; settings: primates, in vivo, read-out: Vdss
[13] = Cmax in rat at 3 mg/kg, po; type: ADME, organism-based; set-up: route oral, dose 3 mg/kg; settings: in vivo
[14] = Drug metabolism in dog hepatocytes assessed as mono and di-oxidative metabolites formation after 4 hrs; type: ADME, cell-based, Canis lupus familiaris, Hepatocyte
[15] = Toxicity in guinea pig assessed as effect on sino-atrial node function in heart by Langendorff test; type: tissue-based, Cavia porcellus; settings: in vivo
[16] = tested on: Rattus norvegicus; experiment: In vivo modulation of gamma secretase in rat assessed as reduction in Abeta40 levels in brain by measuring AUC(0 to 24 hrs) at 30 mg/kg, po by ELISA; type: functional; set-up: scale not given: the % may be the effect or the level left
[17] = Volume of distribution at steady state in rat at 1 mg/kg, iv; type: ADME, organism-based; settings: in vivo, read-out: Vdss
[18] = Drug metabolism in human hepatocytes assessed as mono and di-oxidative metabolites formation after 4 hrs; type: ADME, cell-based, Hepatocyte
[19] = target: T1, Cytochrome P450 1A2 (Homo sapiens, UniProt P05177); experiment: Inhibition of CYP1A2 in human hepatocytes upto 50 uM incubated for 72 hrs; type: ADME, cell-based, Hepatocyte
T1 sequence (P05177 whole entry): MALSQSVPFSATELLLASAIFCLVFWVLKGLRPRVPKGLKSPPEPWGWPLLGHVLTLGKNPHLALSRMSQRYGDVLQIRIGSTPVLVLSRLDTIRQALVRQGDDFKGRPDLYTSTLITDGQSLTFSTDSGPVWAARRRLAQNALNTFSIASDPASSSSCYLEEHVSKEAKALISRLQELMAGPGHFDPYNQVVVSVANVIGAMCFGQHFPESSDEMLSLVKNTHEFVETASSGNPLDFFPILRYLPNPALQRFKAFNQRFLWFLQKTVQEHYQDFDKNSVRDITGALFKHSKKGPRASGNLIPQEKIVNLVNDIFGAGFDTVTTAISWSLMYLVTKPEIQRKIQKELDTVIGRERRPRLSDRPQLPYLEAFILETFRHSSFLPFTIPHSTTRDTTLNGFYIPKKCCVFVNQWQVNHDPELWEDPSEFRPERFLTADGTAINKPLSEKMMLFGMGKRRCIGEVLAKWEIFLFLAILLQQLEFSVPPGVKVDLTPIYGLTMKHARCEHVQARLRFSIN

[20] = Toxicity in rat assessed as effect on cardiac output by telemetry; settings: in vivo
[21] = target: Cannabinoid receptor 1 (Homo sapiens) (UniProt P21554); experiment: Inhibition of Cannabinoid receptor 1 (unknown origin) at 10 uM relative to control
Sequence of Cannabinoid receptor 1 (Homo sapiens) (P21554 whole entry): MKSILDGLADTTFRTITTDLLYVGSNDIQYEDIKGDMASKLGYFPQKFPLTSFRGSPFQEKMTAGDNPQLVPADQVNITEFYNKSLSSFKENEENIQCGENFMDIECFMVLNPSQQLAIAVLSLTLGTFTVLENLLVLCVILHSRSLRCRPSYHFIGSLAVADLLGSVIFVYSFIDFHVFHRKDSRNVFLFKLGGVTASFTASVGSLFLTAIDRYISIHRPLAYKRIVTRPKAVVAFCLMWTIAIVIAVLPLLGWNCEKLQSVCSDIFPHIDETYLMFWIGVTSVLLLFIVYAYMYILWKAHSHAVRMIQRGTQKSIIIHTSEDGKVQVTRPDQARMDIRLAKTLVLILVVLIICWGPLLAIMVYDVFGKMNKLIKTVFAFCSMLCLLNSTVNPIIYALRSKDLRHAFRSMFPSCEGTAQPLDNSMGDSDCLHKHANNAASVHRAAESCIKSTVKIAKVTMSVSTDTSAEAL

[22] = target: D(2) dopamine receptor (Homo sapiens) (UniProt P14416); experiment: Inhibition of dopamine 2-like receptor (unknown origin) at 10 uM relative to control
Sequence of D(2) dopamine receptor (Homo sapiens) (P14416 whole entry): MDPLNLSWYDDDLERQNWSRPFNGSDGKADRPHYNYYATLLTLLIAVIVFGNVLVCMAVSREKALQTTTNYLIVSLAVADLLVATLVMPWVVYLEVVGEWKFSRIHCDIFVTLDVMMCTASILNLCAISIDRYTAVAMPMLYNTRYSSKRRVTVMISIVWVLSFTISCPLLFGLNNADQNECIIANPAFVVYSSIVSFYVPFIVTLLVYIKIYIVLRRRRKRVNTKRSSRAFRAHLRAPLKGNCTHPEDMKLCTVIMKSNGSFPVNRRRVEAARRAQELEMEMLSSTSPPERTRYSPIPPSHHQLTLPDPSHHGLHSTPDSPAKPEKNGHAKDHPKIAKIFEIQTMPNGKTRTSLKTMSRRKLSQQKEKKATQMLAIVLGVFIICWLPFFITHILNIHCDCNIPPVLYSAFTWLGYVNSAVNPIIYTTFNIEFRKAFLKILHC

[23] = tested on: Rattus norvegicus; experiment: In vivo modulation of gamma secretase in rat assessed as reduction in Abeta42 levels in CSF at 30 mg/kg, po measured after 6 hrs by ELISA relative to control; type: functional, Cerebrospinal fluid; set-up: scale not given: the % may be the effect or the level left
[24] = Clearance in nonhuman primate blood relative to hepatic blood flow; type: ADME, tissue-based; settings: primates
[25] = Clearance in rat blood relative to hepatic blood flow; type: ADME, tissue-based
[26] = In vivo modulation of gamma secretase in nonhuman primate assessed as reduction in Abeta40 levels in CSF at 30 mg/kg, po measured after 12 hrs by ELISA relative to control; type: functional, Primates, Cerebrospinal fluid; set-up: scale not given: the % may be the effect or the level left
[27] = AUClast in rat at 3 mg/kg, po; type: ADME, organism-based; set-up: time 0 - last, route oral, dose 3 mg/kg; settings: in vivo
[28] = target: T2, Cytochrome P450 2C8 (Homo sapiens, UniProt P10632); experiment: Inhibition of CYP2C8 (unknown origin); type: ADME
T2 sequence (P10632 whole entry): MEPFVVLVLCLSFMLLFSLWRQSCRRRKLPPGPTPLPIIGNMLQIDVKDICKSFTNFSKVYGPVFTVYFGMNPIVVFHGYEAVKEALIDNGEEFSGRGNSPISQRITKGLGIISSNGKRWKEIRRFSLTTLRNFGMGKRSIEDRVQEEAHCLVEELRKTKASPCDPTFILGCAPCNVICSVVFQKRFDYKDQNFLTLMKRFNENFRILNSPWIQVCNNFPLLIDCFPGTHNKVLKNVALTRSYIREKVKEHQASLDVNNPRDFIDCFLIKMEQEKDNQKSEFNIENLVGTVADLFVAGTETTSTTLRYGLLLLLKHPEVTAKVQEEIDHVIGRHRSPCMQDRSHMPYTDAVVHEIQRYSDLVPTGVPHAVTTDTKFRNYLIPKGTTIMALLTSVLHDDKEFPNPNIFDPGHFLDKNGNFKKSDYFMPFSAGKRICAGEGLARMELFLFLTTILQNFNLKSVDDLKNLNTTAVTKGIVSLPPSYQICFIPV

[29] = Toxicity in guinea pig assessed as reduction in heart flow rate by Langendorff test; type: tissue-based, Cavia porcellus; settings: in vivo
[30] = target: Prostaglandin G/H synthase 1 (Homo sapiens) (UniProt P23219); experiment: Effect on COX1 activity (unknown origin)
Sequence of Prostaglandin G/H synthase 1 (Homo sapiens) (P23219 whole entry): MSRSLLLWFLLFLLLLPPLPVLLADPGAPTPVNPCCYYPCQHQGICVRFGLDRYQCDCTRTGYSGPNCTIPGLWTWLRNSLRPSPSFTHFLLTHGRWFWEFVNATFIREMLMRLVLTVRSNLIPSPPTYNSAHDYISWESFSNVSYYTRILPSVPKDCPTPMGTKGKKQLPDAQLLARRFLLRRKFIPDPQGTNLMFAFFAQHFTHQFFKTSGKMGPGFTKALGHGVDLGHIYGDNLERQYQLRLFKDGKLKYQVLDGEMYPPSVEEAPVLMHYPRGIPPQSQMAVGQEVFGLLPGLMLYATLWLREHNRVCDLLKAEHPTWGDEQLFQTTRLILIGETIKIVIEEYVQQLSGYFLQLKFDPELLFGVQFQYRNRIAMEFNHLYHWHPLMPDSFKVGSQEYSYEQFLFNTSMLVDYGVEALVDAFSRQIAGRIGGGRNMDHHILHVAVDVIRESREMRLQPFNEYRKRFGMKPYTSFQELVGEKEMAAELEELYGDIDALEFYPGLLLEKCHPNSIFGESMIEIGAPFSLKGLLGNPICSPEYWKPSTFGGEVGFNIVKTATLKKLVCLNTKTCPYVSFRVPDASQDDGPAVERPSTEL

[31] = target: Gamma-secretase; experiment: Inhibition of gamma secretase (unknown origin) assessed as reduction in notch cleavage; type: functional, Homo sapiens
[32] = Cmax in nonhuman primate at 10 mg/kg, po; type: ADME, organism-based; set-up: route oral, dose 10 mg/kg; settings: primates, in vivo
[33] = Clearance in dog blood relative to hepatic blood flow; type: ADME, tissue-based, Canis lupus familiaris
[34] = In vivo modulation of gamma secretase in nonhuman primate assessed as reduction in Abeta40 levels in CSF by measuring AUC(0 to 48 hrs) at 30 mg/kg, po by ELISA; type: functional, Primates, Cerebrospinal fluid; set-up: scale not given: the % may be the effect or the level left
[35] = Apparent permeability across apical to basolateral side in human Caco2 cells; type: ADME, cell-based; settings: Caco-2
[36] = target: T1, Cytochrome P450 1A2; experiment: Inhibition of CYP1A2 (unknown origin); type: ADME
[37] = Unbound clearance in human hepatocytes; type: ADME, cell-based, Hepatocyte
[38] = Half life in dog at 0.5 mg/kg, iv; type: ADME, organism-based, Canis lupus familiaris; settings: in vivo

EC90 [3]: 123 nM
pEC50 [4]: 8.05
clearance [5]: 3.5 mL/min/kg
clearance [10]: 3.1 mL/min/kg
inhibition [11]: > 50%
Vd [12]: 1.2 L/kg
Cmax [13]: 0.754 µM
Drug metabolism [14]: Metabolite_Detected
Vd [17]: 2.4 L/kg
Drug metabolism [18]: Metabolite_Detected
inhibition (INH) [19]: Not Active
inhibition [21]: > 50%
inhibition [22]: > 50%
CL [24]: < 20%
CL [25]: < 20%
AUC(0-t) [27]: 11.6 µM·h
pIC50 [28]: 5.59
Activity [30]: inactive
pIC50 [31]: < 5.00
Cmax [32]: 6.09 µM
CL [33]: < 20%
Papp A→B [35]: 6.6 ×10⁻⁶ cm/s
pIC50 [36]: ≤ 4.85
CL free [37]: 4 mL/min/kg
half-life [38]: 2.9 h
Structure (SMILES): COc1nc(C2=NOC(C3CC3)C(c3ccc(Cl)cc3)N2)ccc1-n1cnc(C)c1 (stereo not drawn)
Activity [1]: Non-Toxic
Activity [2]: 51%
Activity [6]: 36%
Activity [7]: Non-Toxic
Activity [8]: 91%
Activity [9]: Non-Toxic
Activity [15]: Non-Toxic
Activity [16]: 25%
Activity [20]: Non-Toxic
Activity [23]: 88%
Activity [26]: 57%
Activity [29]: Non-Toxic
Activity [34]: 25%

From ChEMBL document CHEMBL4837257, “Discovery of the Oxadiazine FRM-024: A Potent CNS-Penetrant Gamma Secretase Modulator” (J Med Chem, 2021)
